Laboratory results reported in ChEMBL document CHEMBL1201862, “PubChem BioAssay data set” (2004).
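1) Cells in 96-well plates. 2) Compound, 48 h, 5 concentrations. 3) Linear interpolation between surrounding doses. 4) Unreached endpoint = highest concentration. The concentration for 50% growth inhibition is given as GI50.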 Active and inactive are the calls of the source. Cut-off read from the data, not from the text of the source: active = GI50 up to about 1.1 µM and inactive = higher.

Tests used:
Assay in all cases: DTP human tumour cell line panel, 48 h
[1] = test system: SF-539
[2] = test system: MDA-N
[3] = test system: T47D
[4] = test system: KM12
[5] = test system: NCI-H23
[6] = test system: RPMI-8226
[7] = test system: SK-OV-3
[8] = test system: U-251
[9] = test system: SW-620
[10] = test system: NCI/ADR-RES
[11] = test system: MDA-MB-435
[12] = test system: Malme-3M
[13] = test system: COLO 205
[14] = test system: UO-31
[15] = test system: HOP-62
[16] = test system: A498
[17] = test system: SK-MEL-2
[18] = test system: UACC-257
[19] = test system: NCI-H522

Measured: GI50

O=C(CCc1ccccc1)On1c(-c2ccccc2)nc2ccccc2c1=S
inactive: [1] 3.92 µM | [2] 12.9 µM | [3] 6.79 µM | [4] 3.87 µM | [5] 4.3 µM | [6] 7.28 µM | [7] 6.84 µM | [8] 4.38 µM | [9] 8.26 µM | [10] 4.08 µM | [11] 8.18 µM | [12] 3.61 µM | [13] 4.28 µM | [14] 3.66 µM | [15] 3.66 µM | [16] 65.8 µM | [17] 8.81 µM | [18] 22.9 µM

CCCC(=O)N/S(=N/S(=O)(=O)c1ccc(Cl)cc1)C(Cl)(Cl)Cl (stereo unspecified)
inactive: [1] > 100 µM | [2] > 100 µM | [3] > 100 µM | [4] > 100 µM | [5] > 100 µM | [7] > 100 µM | [8] 47.9 µM | [9] > 100 µM | [10] > 100 µM | [11] > 100 µM | [12] > 100 µM | [14] > 100 µM | [15] > 100 µM | [16] > 100 µM | [17] 16.5 µM

COCOc1cc(OC)ccc1C/C(=N/O)C(=O)OC
inactive: [1] > 100 µM | [2] > 100 µM | [19] > 100 µM | [3] > 100 µM | [4] > 100 µM | [5] > 100 µM | [7] > 100 µM | [8] > 100 µM | [9] > 100 µM | [10] > 100 µM | [11] > 100 µM | [12] > 100 µM | [13] > 100 µM | [14] > 100 µM | [15] > 100 µM | [17] > 100 µM | [18] > 100 µM

CC(C)(C)OC(=O)N1CCC(C(=O)O)CC1
inactive: [1] > 100 µM | [2] > 100 µM | [19] > 100 µM | [3] > 100 µM | [4] > 100 µM | [5] > 100 µM | [6] > 100 µM | [8] > 100 µM | [9] > 100 µM | [10] > 100 µM | [11] > 100 µM | [12] > 100 µM | [13] > 100 µM | [14] > 100 µM | [15] > 100 µM | [16] > 100 µM | [17] > 100 µM | [18] > 100 µM

CCOC(=O)CCC(NC(=O)C(CCC(=O)OCC)NC(=O)C(Cc1ccc([N+](=O)[O-])cc1)NC(C)=O)C(=O)NNC(=O)OC(C)(C)C (stereo unspecified)
inactive: [2] > 100 µM | [3] 37.3 µM | [4] > 100 µM | [5] 65.6 µM | [6] > 100 µM | [8] > 100 µM | [9] > 100 µM | [12] > 100 µM | [13] > 100 µM | [14] > 100 µM | [15] > 100 µM | [16] > 100 µM | [17] > 100 µM | [18] > 100 µM

COc1cc(C(=O)N(C(=O)N2CCCCC2)c2ccccc2)cc(OC)c1OC
inactive: [1] > 100 µM | [2] > 100 µM | [3] > 100 µM | [4] > 100 µM | [5] > 100 µM | [6] 89.1 µM | [7] > 100 µM | [8] > 100 µM | [9] > 100 µM | [10] > 100 µM | [11] > 100 µM | [13] > 100 µM | [14] > 100 µM | [15] > 100 µM | [16] > 100 µM | [17] > 100 µM | [18] > 100 µM

CC(C)C(NCc1c(O)ccc2c(-c3ccccc3)cc(=O)oc12)C(=O)O (stereo unspecified)
inactive: [1] > 100 µM | [2] > 100 µM | [19] > 100 µM | [3] > 100 µM | [4] > 100 µM | [5] > 100 µM | [6] > 100 µM | [7] > 100 µM | [8] > 100 µM | [9] > 100 µM | [10] > 100 µM | [11] > 100 µM | [12] > 100 µM | [13] > 100 µM | [14] > 100 µM | [15] > 100 µM | [17] > 100 µM | [18] > 100 µM

COc1ccc(-n2cnc3c(NC(C)(C)C(=O)O)ncnc32)cc1
inactive: [2] > 100 µM | [3] > 100 µM | [4] > 100 µM | [5] > 100 µM | [6] > 100 µM | [7] > 100 µM | [8] > 100 µM | [9] > 100 µM | [10] > 100 µM | [11] > 100 µM | [13] > 100 µM | [14] > 100 µM | [15] > 100 µM | [16] > 100 µM | [17] > 100 µM | [18] > 100 µM

O=C1Nc2ccccc2C(=O)/C1=C/NC(=S)NCc1ccccc1
inactive: [1] > 100 µM | [2] > 100 µM | [3] > 100 µM | [4] > 100 µM | [5] > 100 µM | [7] > 100 µM | [8] > 100 µM | [9] > 100 µM | [10] > 100 µM | [11] 98.2 µM | [13] > 100 µM | [14] > 100 µM | [15] > 100 µM | [17] > 100 µM | [18] > 100 µM

c1ccc(-c2cc(-c3cccs3)c(-c3cccs3)o2)cc1
inactive: [1] > 100 µM | [2] > 100 µM | [3] > 100 µM | [4] 48.4 µM | [5] > 100 µM | [6] > 100 µM | [7] > 100 µM | [8] > 100 µM | [9] > 100 µM | [10] > 100 µM | [11] > 100 µM | [13] > 100 µM | [14] > 100 µM | [15] > 100 µM | [16] > 100 µM | [17] 34.7 µM | [18] > 100 µM

C=C1C(=O)O[C@@H]2C[C@@H](C)[C@@H]3C=CC(=O)[C@@]3(C)[C@@H](O)[C@H]12 [HELENALIN]
active: [19] 0.242 µM | [6] 0.532 µM | [8] 0.769 µM | [9] 0.719 µM
inactive: [1] 1.99 µM | [2] 2.08 µM | [3] 2.95 µM | [4] 1.53 µM | [5] 1.66 µM | [11] 1.58 µM | [12] 1.69 µM | [13] 1.56 µM | [14] 1.68 µM | [15] 5.89 µM | [16] 1.86 µM | [17] 1.86 µM | [18] 1.59 µM

CCOC(=O)c1cnn2c1ncc1c(=O)n(NC(N)=O)ccc12
inactive: [1] > 100 µM | [2] > 100 µM | [19] > 100 µM | [3] > 100 µM | [4] > 100 µM | [5] > 100 µM | [7] > 100 µM | [8] > 100 µM | [9] > 100 µM | [11] > 100 µM | [12] > 100 µM | [13] > 100 µM | [14] > 100 µM | [15] > 100 µM | [16] > 100 µM | [17] > 100 µM | [18] > 100 µM

O=C(O)/C=C\C(=O)Nn1c(Cc2ccc(Cl)cc2)n[nH]c1=O
inactive: [1] > 100 µM | [2] > 100 µM | [19] > 100 µM | [3] > 100 µM | [5] > 100 µM | [7] > 100 µM | [8] > 100 µM | [10] > 100 µM | [11] > 100 µM | [12] > 100 µM | [13] > 100 µM | [15] > 100 µM | [16] > 100 µM | [17] > 100 µM | [18] > 100 µM

COc1cc(OC)c(C2c3cc4c(cc3OC(N3CCOCC3)C2C)OCO4)c(OC)c1 (stereo unspecified)
inactive: [1] 12.3 µM | [2] 72.6 µM | [19] > 100 µM | [3] 17.7 µM | [4] 24.5 µM | [5] > 100 µM | [6] 20.2 µM | [9] 23.4 µM | [10] 34.8 µM | [11] 38.7 µM | [13] 35.2 µM | [14] 16.5 µM | [15] > 100 µM | [17] > 100 µM | [18] 78.7 µM

CC(=O)c1sc2c(c1O)c(=O)n(-c1ccccc1)c(=S)n2-c1ccccc1
inactive: [2] > 100 µM | [19] > 100 µM | [3] > 100 µM | [4] > 100 µM | [5] > 100 µM | [6] > 100 µM | [8] > 100 µM | [9] > 100 µM | [11] > 100 µM | [12] > 100 µM | [13] > 100 µM | [14] > 100 µM | [17] > 100 µM | [18] > 100 µM

Cc1cc(C)nc(NS(=O)(=O)c2ccc(NNc3c4ccccc4nc4c(C(=O)Nc5ccc(S(=O)(=O)Nc6ncccn6)cc5)cccc34)cc2)n1
inactive: [1] 27 µM | [2] 31.1 µM | [19] 18.7 µM | [3] 26.1 µM | [4] 34.5 µM | [5] 23 µM | [6] 29.9 µM | [7] 31.5 µM | [8] 21.8 µM | [9] 21.6 µM | [10] > 100 µM | [11] 21.5 µM | [12] 26.7 µM | [13] 27.1 µM | [14] 30.2 µM | [15] 33.5 µM | [17] 16.2 µM | [18] 33.7 µM
